Laboratory results published in ChEMBL document CHEMBL5518196, “Discovery of potent thiazolidin-4-one sulfone derivatives for inhibition of proliferation of osteosarcoma in vitro and in vivo” (Eur J Med Chem, 2024).
One block for each molecule: values may come before it. The source made the active and inactive calls. No cut-off for these calls is given here.

Tests used:
HOS-TE85 [1] = experiment: Antiproliferative activity against human MNNG/HOS cells assessed as inhibition of cell growth incubated for 72 hrs by CCK8 assay; format: functional, cell-based; settings: HOS-TE85, 72 h
[2] = Metabolic stability in human liver microsomes assessed as half-life at 0.1 uM preincubated for 10 mins followed by NADPH addition and measured upto 60 mins by LC-MS/MS analysis; format: ADME, Microsome; settings: time < 70 min
[3] = Metabolic stability in human liver microsomes assessed as bioavailability at 0.1 uM preincubated for 10 mins followed by NADPH addition and measured upto 60 mins by LC-MS/MS analysis; format: ADME, Microsome; settings: time < 70 min
[4] = Metabolic stability in mouse liver microsomes assessed as half-life at 0.1 uM preincubated for 10 mins followed by NADPH addition and measured upto 60 mins by LC-MS/MS analysis; format: ADME, Microsome; settings: time < 70 min
143B = experiment: Antiproliferative activity against human 143B cells assessed as inhibition of cell growth incubated for 72 hrs by CCK8 assay; format: functional, cell-based
SAOS-2 = experiment: Antiproliferative activity against human SAOS-2 cells assessed as inhibition of cell growth incubated for 72 hrs by CCK8 assay; format: functional, cell-based; settings: SAOS-2, 72 h
SJSA-1 = experiment: Antiproliferative activity against human SJSA-1 cells assessed as inhibition of cell growth incubated for 72 hrs by CCK8 assay; format: functional, cell-based; settings: SJSA-1, 72 h
MGC-803 = experiment: Antiproliferative activity against human MGC-803 cells assessed as inhibition of cell growth incubated for 72 hrs by CCK8 assay; format: functional, cell-based; settings: MGC-803, 72 h
MG-63 = experiment: Antiproliferative activity against human MG-63 cells assessed as inhibition of cell growth incubated for 72 hrs by CCK8 assay; format: functional, cell-based; settings: MG-63, 72 h
A549 = experiment: Antiproliferative activity against human A549 cells assessed as inhibition of cell growth incubated for 72 hrs by CCK8 assay; format: functional, cell-based; settings: A549, 72 h
[5] = Antiproliferative activity against BMSC (unknown origin) assessed as inhibition of cell growth incubated for 72 hrs by CCK8 assay; format: functional, cell-based
PC-3 = experiment: Antiproliferative activity against human PC-3 cells assessed as inhibition of cell growth incubated for 72 hrs by CCK8 assay; format: functional, cell-based; settings: PC-3, 72 h
HOS-TE85 [6] = experiment: Potency index, ratio of sorafenib IC50 to test compound IC50 for antiproliferative activity against human MNNG/HOS cells; format: functional
HOS-TE85 [7] = experiment: Inhibition of colony formation in human MNNG/HOS cells incubated for 10 days by crystal violet staining based light microscopic analysis; format: functional, cell-based; settings: dose 0.1-0.4 µM, time 10.0 day
HOS-TE85 [8] = experiment: Inhibition of cell migration in human MNNG/HOS cells assessed as reduction in closure rate at 0.2 uM incubated for 24 hrs by wound healing assay; format: functional, cell-based
[9] = Clearance in male ICR mouse at 12.5 mg/kg, iv measured after 24 hrs by LC-MS/MS analysis; format: ADME, organism-based; settings: in vivo
[10] = Cmax in male ICR mouse at 12.5 mg/kg, iv measured after 24 hrs by LC-MS/MS analysis; format: ADME, organism-based; settings: in vivo
[11] = Half-life in male ICR mouse at 12.5 mg/kg, iv measured after 24 hrs by LC-MS/MS analysis; format: ADME, organism-based; settings: in vivo
[12] = AUC (0 to infinity) in male ICR mouse at 12.5 mg/kg, iv measured after 24 hrs by LC-MS/MS analysis; format: ADME, organism-based; settings: in vivo
[13] = Cmax in male ICR mouse at 62.5 mg/kg, ip measured after 24 hrs by LC-MS/MS analysis; format: ADME, organism-based; settings: in vivo
[14] = Half-life in male ICR mouse at 62.5 mg/kg, ip measured after 24 hrs by LC-MS/MS analysis; format: ADME, organism-based; settings: in vivo
[15] = AUC (0 to infinity) in male ICR mouse at 62.5 mg/kg, ip measured after 24 hrs by LC-MS/MS analysis; format: ADME, organism-based; settings: in vivo
[16] = Bioavailability in male ICR mouse at 62.5 mg/kg, ip measured after 24 hrs by LC-MS/MS analysis; format: ADME, organism-based; settings: in vivo
HOS-TE85 [17] = experiment: Antitumor activity against human MNNG/HOS cells xenografted in female BALB/c mouse assessed as tumor growth inhibition at 62.5 mg/kg, ip administered twice daily for 23 days relative to control; format: functional; settings: HOS-TE85, 552 h, time 23 day, read-out: TGI
HOS-TE85 [18] = experiment: Antitumor activity against human MNNG/HOS cells xenografted in female BALB/c mouse assessed as reduction in tumor volume at 62.5 mg/kg, ip administered twice daily for 23 days; format: functional, organism-based; settings: time 23.0 day
[19] = Toxicity in female BALB/c mouse xenografted with human MNNG/HOS cells assessed as effect on heart morphology at 62.5 mg/kg, ip administered twice daily for 23 days by Hematoxylin and Eosin staining based analysis; format: organism-based, HOS-TE85; settings: in vivo, 552 h, time 23 day
[20] = Toxicity in female BALB/c mouse xenografted with human MNNG/HOS cells assessed as effect on liver morphology at 62.5 mg/kg, ip administered twice daily for 23 days by Hematoxylin and Eosin staining based analysis; format: organism-based, HOS-TE85; settings: in vivo, 552 h, time 23 day
[21] = Toxicity in female BALB/c mouse xenografted with human MNNG/HOS cells assessed as effect on spleen morphology at 62.5 mg/kg, ip administered twice daily for 23 days by Hematoxylin and Eosin staining based analysis; format: organism-based, HOS-TE85; settings: in vivo, 552 h, time 23 day
[22] = Toxicity in female BALB/c mouse xenografted with human MNNG/HOS cells assessed as effect on kidney morphology at 62.5 mg/kg, ip administered twice daily for 23 days by Hematoxylin and Eosin staining based analysis; format: organism-based, HOS-TE85; settings: in vivo, 552 h, time 23 day
[23] = Toxicity in female BALB/c mouse xenografted with human MNNG/HOS cells assessed as effect on heart weight at 62.5 mg/kg, ip administered twice daily for 23 days; format: organism-based, HOS-TE85; settings: in vivo, 552 h, time 23 day
[24] = Toxicity in female BALB/c mouse xenografted with human MNNG/HOS cells assessed as effect on liver weight at 62.5 mg/kg, ip administered twice daily for 23 days; format: organism-based, HOS-TE85; settings: in vivo, 552 h, time 23 day
[25] = Toxicity in female BALB/c mouse xenografted with human MNNG/HOS cells assessed as effect on spleen weight at 62.5 mg/kg, ip administered twice daily for 23 days; format: organism-based, HOS-TE85; settings: in vivo, 552 h, time 23 day
[26] = Toxicity in female BALB/c mouse xenografted with human MNNG/HOS cells assessed as effect on kidney weight at 62.5 mg/kg, ip administered twice daily for 23 days; format: organism-based, HOS-TE85; settings: in vivo, 552 h, time 23 day
HOS-TE85 [27] = experiment: Induction of cell cycle arrest in human MNNG/HOS cells incubated for 24 hrs bby PI/RNase A staining based analysis; format: functional
HOS-TE85 [28] = experiment: Induction of apoptosis in human MNNG/HOS cells at 0.11 to 0.44 uM incubated for 24 hrs by Annexin V-FITC/PI staining based analysis; format: functional, cell-based; settings: dose 0.11-0.44 µM
HOS-TE85 [29] = experiment: Induction of apoptosis in human MNNG/HOS cells assessed as effect on Bcl-2 level incubated for 24 hrs by Western blot analysis; format: functional, cell-based
HOS-TE85 [30] = experiment: Induction of apoptosis in human MNNG/HOS cells assessed as effect on Bax level incubated for 24 hrs by Western blot analysis; format: functional, cell-based
HOS-TE85 [31] = experiment: Induction of apoptosis in human MNNG/HOS cells assessed as effect on caspase-3 level incubated for 24 hrs by Western blot analysis; format: functional, cell-based
HOS-TE85 [32] = experiment: Inhibition of p53 protein expression in human MNNG/HOS cells incubated for 24 hrs by Western blot analysis; format: functional, cell-based
HOS-TE85 [33] = experiment: Inhibition of MYOF protein expression in human MNNG/HOS cells incubated for 24 hrs by Western blot analysis; format: functional, cell-based
HOS-TE85 [34] = experiment: Effect on DDX5 protein expression in human MNNG/HOS cells by ABPP assay; format: functional, cell-based
HOS-TE85 [35] = experiment: Antiproliferative activity against human MNNG/HOS cells transfected with DDX5 shRNA assessed as inhibition of cell growth incubated for 72 hrs by CCK8 assay; format: functional, cell-based; settings: HOS-TE85, 72 h
HOS-TE85 [36] = experiment: Antiproliferative activity against human MNNG/HOS cells assessed as inhibition of cell growth incubated for 24 to 72 hrs by CellTiter-Glo luminescent cell viability assay; format: functional, cell-based
HOS-TE85 [37] = experiment: Inhibition of colony formation in human MNNG/HOS cells at 4 uM incubated for 10 days by crystal violet staining based light microscopic analysis; format: functional, cell-based; settings: time 10.0 day
HOS-TE85 [38] = experiment: Antitumor activity against human MNNG/HOS cells xenografted in female BALB/c mouse assessed as tumor growth inhibition at 30 mg/kg, po administered twice daily for 23 days relative to control; format: functional; settings: HOS-TE85, 552 h, time 23 day, read-out: TGI
[39] = Half-life in male Wistar rat at 100 mg/kg, po; settings: in vivo

half-life at 0.1 µM [2]: 2.6 h | bioavailability at 0.1 µM [3]: 59.3% | half-life at 0.1 µM [4]: 1.23 h | IC50 (SJSA-1): 304 nM | IC50 (MGC-803): 394 nM | IC50 (A549): 1890 nM | IC50 (PC-3): 4300 nM | clearance [9]: 126 mL/min/kg | Cmax [10]: 5420 ng/mL | half-life [11]: 0.222 h | AUC(0-inf) [12]: 1660 ng·h/mL | Cmax [13]: 78.3 ng/mL | half-life [14]: 1.53 h | AUC(0-inf) [15]: 9560 ng·h/mL | bioavailability [16]: 115%
Structure (SMILES): COCCCCNC(=O)c1cccc(C2N(c3ncccc3OC)C(=O)CS2(=O)=O)n1 (racemic)
IC50 (HOS-TE85 [1]): 217 nM | IC50 (143B): 295 nM | IC50 (SAOS-2): 430 nM | IC50 (MG-63): 1090 nM | IC50 [5]: 2130 nM | Ratio IC50 (HOS-TE85 [6]): ~20 | inhibition (HOS-TE85 [7]): Dose-Dependent Effect | inhibition (HOS-TE85 [8]): Active | inhibition in vivo at 62.5 mg/kg (HOS-TE85 [17]): 44.6% | Activity (HOS-TE85 [18]): Active | Activity [19]: Non-Toxic | Activity [20]: Non-Toxic | Activity [21]: Non-Toxic | Activity [22]: Non-Toxic | Activity [23]: Non-Toxic | Activity [24]: Non-Toxic | Activity [25]: Non-Toxic | Activity [26]: Non-Toxic | Activity (HOS-TE85 [27]): inactive | Activity (HOS-TE85 [28]): inactive | Activity (HOS-TE85 [29]): inactive | Activity (HOS-TE85 [30]): inactive | Activity (HOS-TE85 [31]): inactive | inhibition (HOS-TE85 [32]): inactive | inhibition (HOS-TE85 [33]): inactive | Activity (HOS-TE85 [34]): inactive | IC50 (HOS-TE85 [35]): 277 nM

half-life [39]: 21.9 h
Structure (SMILES): CNC(=O)c1cc(Oc2ccc(NC(=O)Nc3ccc(Cl)c(C(F)(F)F)c3)cc2)ccn1 [SORAFENIB]
IC50 (HOS-TE85 [36]): 4810 nM | inhibition (HOS-TE85 [37]): Active | inhibition in vivo at 30 mg/kg (HOS-TE85 [38]): 39.8%

half-life at 0.1 µM [2]: 1.51 h | bioavailability at 0.1 µM [3]: 45.8% | half-life at 0.1 µM [4]: 0.942 h
Structure (SMILES): COCCCCNC(=O)c1cccc(C2N(c3ccccn3)C(=O)CS2(=O)=O)n1 (stereo not given)
IC50 (HOS-TE85 [1]): 149 nM
